Results from ChEMBL document CHEMBL2380201, “Synthesis, biological activity and resistance to proteolytic digestion of new cyclic dermorphin/deltorphin analogues” (Eur J Med Chem, 2013).
Calls of active or inactive are those of the source. The calls are words filed in the database; no cut-off is given here. Numbered stars: 1 amine (or outer) side, 2 acyl side, 3 side chain; on linkers, the order of the positions; unused ones are H or OH. Bridge positions count the residues as written; N and C are the ends. Square brackets hold non-standard residues; d marks the D form. Peptide text beside a SMILES is read from it. ξ: configuration not given here. Orn = NCCC[C@H](N)C(=O)O; Dap = NC[C@H](N)C(=O)O; ξOrn = NCCCC(N)C(=O)O; CO = O=C([*:1])[*:2]; ξDap = NCC(N)C(=O)O

Assays:
[1] = Proteolytic stability of the compound in ammonium bicarbonate buffer assessed as hydrolysis at pH 8 at 10^-4 M after 2.5 hrs by ESI-MS spectrophotometry in presence […]; type: ADME; conditions: isolated protein, pH 8, 2.5 h, 100 µM
[2] = system: Mus musculus; assay: Antinociceptive activity in BALB/c mouse assessed as increase in paw withdrawal latency at 0.1 mg/kg, sc measured 30 mins post dose by hot plate test; type: functional, organism-based; parameters: dose 0.1 mg/kg
[3] = system: Mus musculus; assay: Antinociceptive activity in BALB/c mouse assessed as increase in paw withdrawal latency at 1 mg/kg, ip measured 30 mins post dose by hot plate test; type: functional, organism-based; parameters: dose 1 mg/kg
[4] = Proteolytic stability of the compound in ammonium bicarbonate buffer assessed as hydrolysis at pH 8 at 10^-4 M after 12 hrs by ESI-MS spectrophotometry in presence of chymotrypsin; type: ADME; conditions: isolated protein, pH 8, 12 h, 100 µM
[5] = system: chymotrypsin; assay: Proteolytic stability of the compound in ammonium bicarbonate buffer assessed as hydrolysis at pH 8 at 10^-4 M after 1.5 hrs by ESI-MS spectrophotometry in presence of chymotrypsin; type: ADME; conditions: read-out: Drug degradation
[6] = Proteolytic stability of the compound in ammonium bicarbonate buffer assessed as hydrolysis at pH 8 at 10^-4 M after 12 hrs by ESI-MS spectrophotometry in presence […]; type: ADME; conditions: isolated protein, pH 8, 12 h, 100 µM
[7] = system: Mus musculus; assay: Antinociceptive activity in BALB/c mouse assessed as increase in paw withdrawal latency at 1 mg/kg, iv measured 30 mins post dose by hot plate test; type: functional, organism-based; parameters: dose 1 mg/kg
[8] = Proteolytic stability of the compound in ammonium bicarbonate buffer assessed as intact cyclic fragment at pH 8 at 10^-4 M after 2.5 hrs by ESI-MS spectrophotometry in presence […]; type: ADME; conditions: isolated protein, pH 8, 2.5 h, 100 µM
[9] = system: Mus musculus; assay: Antinociceptive activity in BALB/c mouse at 2 mg/kg, iv measured 30 mins post dose by tail flick test relative to vehicle-treated control; type: functional
[10] = system: Mus musculus; assay: Antinociceptive activity in BALB/c mouse at 4 mg/kg, iv up to 120 mins by tail flick test; type: functional, organism-based; parameters: dose 4 mg/kg
[11] = system: Mus musculus; assay: Antinociceptive activity in BALB/c mouse at 1 mg/kg, iv measured 30 to 90 mins post dose by tail flick test relative to vehicle-treated control; type: functional
[12] = system: Mus musculus; assay: Antinociceptive activity in BALB/c mouse at 0.5 mg/kg, iv measured 30 to 90 mins post dose by tail flick test relative to vehicle-treated control; type: functional
[13] = Proteolytic stability of the compound in ammonium bicarbonate buffer assessed as hydrolysis at pH 8 at 10^-4 M after 20 mins to 12 hrs by ESI-MS spectrophotometry in presence of chymotrypsin; type: ADME; conditions: isolated protein, pH 8, 100 µM
[14] = Proteolytic stability of the compound in ammonium bicarbonate buffer assessed as hydrolysis at pH 8 at 10^-4 M after 20 mins to 12 hrs by ESI-MS spectrophotometry in presence […]; type: ADME; conditions: isolated protein, pH 8, 100 µM
[15] = system: Mus musculus; assay: Antinociceptive activity in BALB/c mouse at 2 mg/kg, iv measured 15 to 180 mins post dose by tail flick test; type: functional, organism-based; parameters: dose 2 mg/kg
[16] = system: Mus musculus; assay: Antinociceptive activity in iv dosed BALB/c mouse measured 15 to 180 mins post dose by tail flick test; type: functional, organism-based

| Structure (SMILES) | Activity [2] | Activity [3] | Stability [4] | metabolised at 1.5 h, 100 µM [5] [%] | Stability [6] | Activity [7] | further results |
| --- | --- | --- | --- | --- | --- | --- | --- |
| NC(=O)[C@@H]1CCCCNC(=O)NCCC[C@H](NC(=O)[C@@H](N)Cc2ccc(O)cc2)C(=O)N[C@@H](Cc2ccccc2)C(=O)N1 (H-Y[Orn]FK-NH2; linker 2-4 via CO) | – | – | – | – | – | – | Stability [1]: Unstable |
| NCCNC(=O)[C@@H]1CNC(=O)NCCCC[C@@H](NC(=O)[C@@H](N)Cc2ccc(O)cc2)C(=O)N[C@@H](Cc2ccccc2)C(=O)N1 | inactive | inactive | Stable | < 1 | Stable | inactive | – |
| NC(=O)NCCNC(=O)[C@@H]1CNC(=O)NCCCC[C@@H](NC(=O)[C@@H](N)Cc2ccc(O)cc2)C(=O)N[C@@H](Cc2ccccc2)C(=O)N1 | inactive | inactive | Stable | < 1 | Stable | inactive | – |
| NC(=O)NCCNC(=O)[C@@H]1CCCCNC(=O)NCCCC[C@@H](NC(=O)[C@@H](N)Cc2ccc(O)cc2)C(=O)N[C@@H](Cc2ccccc2)C(=O)N1 | inactive | inactive | Stable | < 1 | Stable | inactive | – |
| NC(=O)NCCNC(=O)[C@@H]1CNC(=O)NCCC[C@@H](NC(=O)[C@@H](N)Cc2ccc(O)cc2)C(=O)N[C@@H](Cc2ccccc2)C(=O)N1 | inactive | inactive | Stable | < 1 | Stable | inactive | – |
| NC(=O)NCCNC(=O)[C@@H]1CCCNC(=O)NCCC[C@@H](NC(=O)[C@@H](N)Cc2ccc(O)cc2)C(=O)N[C@@H](Cc2ccccc2)C(=O)N1 | inactive | inactive | Stable | < 1 | Stable | inactive | – |
| NC(=O)[C@@H]1CNC(=O)NCCCC[C@H](NC(=O)[C@@H](N)Cc2ccc(O)cc2)C(=O)N[C@@H](Cc2ccccc2)C(=O)N1 (H-YKF[Dap]-NH2; linker 2-4 via CO) | – | – | – | – | – | – | Stability [8]: 98% |
| NC(=O)NCCNC(=O)[C@@H]1CCCCNC(=O)NCCC[C@@H](NC(=O)[C@@H](N)Cc2ccc(O)cc2)C(=O)N[C@@H](Cc2ccccc2)C(=O)N1 | inactive | inactive | Stable | < 1 | Stable | inactive | – |
| CN1CC[C@]23c4c5ccc(O)c4O[C@H]2[C@@H](O)C=C[C@H]3[C@H]1C5 [MORPHINE] | – | – | – | – | – | inactive | MPE [9]: 63.1%; Activity [10]: Active; Activity [11]: inactive; Activity [12]: inactive |
| NC(=O)C1CNC(=O)NCCCC(NC(=O)[C@@H](N)Cc2ccc(O)cc2)C(=O)N[C@@H](Cc2ccccc2)C(=O)N1 (some centres undefined) (H-Y[ξOrn]F[ξDap]-NH2; linker 2-4 via CO) | – | – | – | – | – | – | Stability [1]: Unstable |
| NC(=O)NCCNC(=O)[C@@H]1CCNC(=O)NCCC[C@@H](NC(=O)[C@@H](N)Cc2ccc(O)cc2)C(=O)N[C@@H](Cc2ccccc2)C(=O)N1 | inactive | inactive | Stable | < 1 | Stable | inactive | – |
| NC(=O)[C@@H]1CCCCNC(=O)NC[C@H](NC(=O)[C@@H](N)Cc2ccc(O)cc2)C(=O)N[C@@H](Cc2ccccc2)C(=O)N1 (H-Y[Dap]FK-NH2; linker 2-4 via CO) | – | – | – | – | – | – | Stability [8]: 98% |
| NC(=O)NCCNC(=O)[C@@H]1CCCNC(=O)NCCCC[C@@H](NC(=O)[C@@H](N)Cc2ccc(O)cc2)C(=O)N[C@@H](Cc2ccccc2)C(=O)N1 | inactive | inactive | Stable | < 1 | Stable | inactive | – |
| NC(=O)NCCNC(=O)[C@@H]1CCNC(=O)NCCCC[C@@H](NC(=O)[C@@H](N)Cc2ccc(O)cc2)C(=O)N[C@@H](Cc2ccccc2)C(=O)N1 | inactive | inactive | – | < 1 | – | Active | Stability [13]: Stable; Stability [14]: Stable; Activity [15]: Active; Activity [16]: Dose-dependent effect; Activity [10]: Active; MPE [11]: 54.7%; MPE [12]: 41.8% |
| CCNC(=O)[C@@H]1CCCNC(=O)NCCCC[C@@H](NC(=O)[C@@H](N)Cc2ccc(O)cc2)C(=O)N[C@@H](Cc2ccccc2)C(=O)N1 | inactive | inactive | Stable | < 1 | Stable | inactive | – |
